Results: patent US11873298B2, “Compounds and uses thereof” (JANSSEN PHARMACEUTICA NV, priority 2017, dated 2024)

Legend:
[1] = target: T1, SCD5 (Homo sapiens, UniProt Q86SK9); experiment: Growth inhibition of humanized yeast strain expressing SCD5 as sole desaturase; format: cell-based
T1 construct: host or cells: S. cerevisiae ole1Δ strain (W303 pdr1Δ pdr3Δ background), plasmid pRS316 with TDH3 promoter and CYC1 terminator
T1 sequence (Q86SK9 1-330): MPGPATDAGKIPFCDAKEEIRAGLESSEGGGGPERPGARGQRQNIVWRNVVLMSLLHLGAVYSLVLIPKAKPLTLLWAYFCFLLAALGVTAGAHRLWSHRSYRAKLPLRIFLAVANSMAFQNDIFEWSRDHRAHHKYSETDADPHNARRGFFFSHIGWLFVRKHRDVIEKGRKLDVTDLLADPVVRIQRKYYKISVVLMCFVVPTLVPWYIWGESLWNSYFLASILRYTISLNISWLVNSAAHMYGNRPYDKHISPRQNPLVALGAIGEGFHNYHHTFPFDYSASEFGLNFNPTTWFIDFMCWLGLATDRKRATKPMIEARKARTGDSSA
Method in brief: (§1)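 ole1Δ yeast (W303 pdr1Δ pdr3Δ background) carrying plasmid-borne Ole1, SCD1 or SCD5, grown in uracil-free media; cultures pre-grown in raffinose, seeded at 2× density 0.02 in galactose media with compound. Growth read as OD600 after 24 h at 30° C. for Ole1, 40 h for SCD1/SCD5.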

[2] = target: T2, SCD1 (Homo sapiens, UniProt O00767); experiment: Growth inhibition of humanized yeast strain expressing SCD1 as sole desaturase; format: cell-based
T2 construct: host or cells: S. cerevisiae ole1Δ strain (W303 pdr1Δ pdr3Δ background), plasmid pRS316 with TDH3 promoter and CYC1 terminator
T2 sequence (O00767 1-359): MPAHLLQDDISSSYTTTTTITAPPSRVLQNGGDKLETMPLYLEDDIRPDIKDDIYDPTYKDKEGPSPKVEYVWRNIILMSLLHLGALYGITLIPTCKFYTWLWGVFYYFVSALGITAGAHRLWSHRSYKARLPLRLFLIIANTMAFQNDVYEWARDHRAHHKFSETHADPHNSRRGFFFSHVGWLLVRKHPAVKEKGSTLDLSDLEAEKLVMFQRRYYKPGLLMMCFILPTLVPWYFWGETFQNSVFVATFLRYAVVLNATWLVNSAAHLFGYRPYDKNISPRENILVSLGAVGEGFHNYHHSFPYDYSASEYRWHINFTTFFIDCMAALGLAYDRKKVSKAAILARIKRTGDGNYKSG
Method in brief: as §1

[3] = humanized yeast strain expressing SCD5
[4] = humanized yeast strain expressing SCD1
[5] = growth inhibition of humanized yeast strain expressing human SCD5
[6] = growth inhibition of humanized yeast strain expressing human SCD1

Structure (SMILES) | IC50 ([1]; humanized yeast strain, 40 h) [µM] | IC50 ([2]; humanized yeast strain, 40 h) [µM] | further results
CC(C)n1ncc2ccc(-c3noc(N4CCN(C(=O)c5ccccc5Cl)CC4)n3)cc21 [Compound 364] |  |  | IC50 [1, 3]: > 45 µM; SCD5 % Max Inhibition [1, 3]: 2.22%; SCD1 % Max Inhibition [2, 4]: 70.82%
CC(C)n1ncc2ccc(-c3nc(C4CCN(CC5CC5)C(=O)C4)no3)cc21 (centres unmarked) [Compound 1146] | 0.38 | > 45 | 
CC(C)(C)OC(=O)N1C[C@@H]2[C@H](C1)[C@H]2C(=O)NCc1ccccc1 [Compound 771] | > 45 | > 45 | 
CC(C)(C)OC(=O)N1CCC(c2nc(-c3ccc4cnn(C5CC(=O)C5)c4c3)no2)CC1 [Compound 787] | 0.108 | 31.5 | 
CC(C)(C)OC(=O)N1CCC(c2nc(-c3ccc4cnn([C@H]5C[C@](C)(O)C5)c4c3)no2)CC1 [Compound 821] | 5.06 | > 45 | 
CC(C)n1ncc2ccc(-c3noc(C4(F)CCN(C(=O)CC5(C)CC5)CC4)n3)cc21 [Compound 623] |  |  | IC50 [1, 5]: 0.854 µM; IC50 [2, 6]: > 45 µM
CC(C)(C)OC(=O)N1CCC(c2noc(-c3cc(N4CCOCC4)ccc3F)n2)CC1 [Compound 1156] | 0.493 | > 45 | 
O=C(N1CCN(c2noc(-c3ccnc(NC4COC4)c3)n2)CC1)C1(F)CC1 [Compound 1148] | 19.4 | > 45 | 
c1cc2cnn(C3COC3)c2cc1-c1nc(C2CCNCC2)no1 [Compound 752] | > 45 | > 45 | 
Cc1nn(C)c2cc(-c3nc(C4CCN(C(=O)OC5CCC5)CC4)no3)ccc12 [Compound 923] | > 45 | > 45 | 
CC(C)(C)OC(=O)N1CCN(c2noc(-c3ccnc(Cl)c3)n2)CC1 [Compound 754] | 16.5 | > 45 | 
O=C(N1CCC(c2noc(-c3ccnc(C4CCOC4)c3)n2)CC1)C1(F)CC1 (centres unmarked) [Compound 1087] | 0.041 | > 45 | 
C=C(C)c1ccc(C(=O)N2CCC(c3nc(-c4ccc5cnn(C)c5c4)no3)CC2)nc1 [Compound 501] |  |  | IC50 [1, 3]: 21.3 µM; IC50 [2, 4]: 12.2 µM
Cc1nn(C)c2cc(-c3noc(C4CCN(C(=O)CNC(=O)c5cccc(Cl)c5)CC4(F)F)n3)ccc12 (centres unmarked) [Compound 603] |  |  | IC50 [1, 3]: 2.41 µM; IC50 [2, 4]: 7.26 µM
CC(C)c1noc2ccc(-c3noc(C4CCN(C(=O)CC5(C)CC5)CC4)n3)cc12 [Compound 670] |  |  | IC50 [1, 5]: 3.79 µM; IC50 [2, 6]: > 45 µM
COC(=O)N1CCC(c2nc(-c3ccc4cnn(C(C)C)c4c3)no2)CC1 [Compound 355] |  |  | IC50 [1, 3]: > 45 µM; SCD5 % Max Inhibition [1, 3]: 3.68%; SCD1 % Max Inhibition [2, 4]: 71.31%
CC1(OC(=O)N2CCC(c3noc(-c4ccnc([C@H]5CCOC5)c4)n3)CC2)CC1 [Compound 1136] | 0.01 | > 45 | 
c1cc2cnn(C3COC3)c2cc1-c1nc(C2CCCNCC2)no1 (centres unmarked) [Compound 863] | > 45 | > 45 | 
CC(C)n1ncc2ccc(-c3noc(C4CCN(C(=O)OC(C)(C)C)C=C4F)n3)cc21 (centres unmarked) [Compound 509] |  |  | IC50 [1, 3]: > 45 µM; IC50 [2, 4]: > 45 µM
CC(C)n1nc(CCS(C)(=O)=O)c2ccc(-c3noc(C4CCN(C(=O)OC(C)(C)C)CC4)n3)cc21 [Compound 767] | 0.01 | > 45 | 
CC(C)c1noc2ccc(-c3noc(C4CCN(C(=O)C5CC5)CC4)n3)cc12 [Compound 941] | 20.4 | > 45 | 
C=C(F)/C=C/n1ncc2ccc(-c3noc(C4CCN(C(=O)OC(C)(C)C)CC4)n3)cc21 [Compound 738] |  |  | IC50 [1, 5]: > 45 µM; IC50 [2, 6]: > 45 µM
CC(C)(C)OC(=O)N1CCC(c2nc(-c3ccn4cnc(C#N)c4c3)no2)CC1 [Compound 833] | > 45 | > 45 | 
O=C(c1ccccc1F)N1CCC(c2noc(-c3ccc4cnn(C5COC5)c4c3)n2)CC1 [Compound 696] |  |  | IC50 [1, 5]: 0.08 µM; IC50 [2, 6]: > 45 µM
O=C(OC1CC1)N1CCC(c2noc(-c3ccnc(C4CCOC4)c3)n2)CC1 (centres unmarked) [Compound 1098] | 0.062 | > 45 | 
CO[C@H]1C[C@@H](n2ncc3ccc(-c4noc(C5CCN(C(=O)OC(C)(C)C)CC5)n4)cc32)C1 [Compound 867] | 1.92 | > 45 | 
COC(=O)N1CCN(c2nc(-c3ccc4cnn(C(C)C)c4c3)no2)CC1 [Compound 356] |  |  | IC50 [1, 3]: > 45 µM; SCD5 % Max Inhibition [1, 3]: 2.88%; SCD1 % Max Inhibition [2, 4]: 51.18%
CC(C)n1ncc2ccc(-c3noc(C4CCN(C(=O)CNC(=O)c5cccc(Cl)c5)CC4(F)F)n3)cc21 (centres unmarked) [Compound 522] |  |  | IC50 [1, 3]: > 45 µM; IC50 [2, 4]: > 45 µM
